Assay results: patent US20070148710A1, “Cpt resistant cell line” (priority 2003, published 2007)
Converted amounts (≈) assume the structure as drawn. Where two headings read alike, the source gives them in different places.

Assays:
[1] = system: SW948CPTH cell lines recovered from xenografts; assay: clonogenic assay on cell lines recovered from tumor xenografts; type: cell-based; details: Homo sapiens, cultured 2-4 weeks CPT-11-free
SW948 cells [2] = assay: clonogenic cell survival assay, CPT-11 IC50; type: cell-based; details: Homo sapiens
Procedure: 81. […] Cells were then washed with PBS and cultured in fresh medium without CPT-11 and a colony formation assay initiated. Ten days later, the surviving fraction of the SW948 and SW948CPTH cells was determined.
82. […] This level of sensitivity was similar to that reported for other cell lines (Kanzawa et al. Cancer Res 50:5919-5924, 1990; Kojima et al. Cancer Res 58:4368-4374, 1998; and Kojima et al. J Clin Invest 101:1789-1796, 1998).

[3] = system: SW948 human colon cancer xenografts; assay: tumor xenograft growth; type: in vivo, Balb/c athymic nude mice; details: initial study: Erbitux 1 mg i.p. every 3 days, CPT-11 40 mg/kg i.v. every 6 days, 3 Gy radiation (FIG. 11); n=7
Procedure: 15. […] Erbitux® (1 mg) was administered i.p. every 3 days for 5 weeks beginning on day 22 after tumor cell injection. […] Mean change in tumor size relative to size on day 22 (n=7 mice/group) is shown. At the time of Erbitux® administration (day 22), the mean±SD size of the tumors were 71.8±39.8 mm^2.
16. […] Erbitux® (1 mg) was administered i.p. 2 times a week for 3 weeks (days 24, 27, 31, 34, 38, and 41) beginning on day 24 after tumor cell injection. […] Mean change in tumor size relative to size on day 24 (n=7 mice/group). At the time of Erbitux® administration (day 24), the mean±SD size of the tumors were 58.0±29.3 mm^2.
91. Additional studies against SW948 colon cancer cells have been carried out in vitro and with SW948 tumor xenografts. […] FIG. 10 illustrates the induction of apoptosis in SW948 cells in vitro following treatment with these agents. […] This experiment was run concurrently with a third experiment in which SW948CPTH cells were used in the xenograft (FIG. 13).
92. Balb/c athymic nude mice were injected subcutaneously with 2×10^7 SW948 or SW948CPTH cells. […] Change in average tumor size measured with calipers (surface area equal to product of two largest diameters) for each group relative to the size on day 24 was determined. […] Change in average tumor size relative to day 22 was monitored as described above for SW948 tumors.

SW948 cells [4] = assay: cell cycle analysis; type: cell-based, human
[5] = system: SW948 colon carcinoma cells; assay: induction of early apoptosis (annexin V-FITC / propidium iodide, FACS); type: cell-based, human; details: SW948 in vitro, 4 days post-treatment (FIG. 10)
Text: 14. […] Floating and adherent cells were collected 4 days post-treatment. The treatments are described in the legend for FIG. 8. The cells were stained with annexin V-FITC and propidium iodide, then analyzed by FACS using CellQuest software (Beckton-Dickenson, San Diego, Calif.). Data points are the average±SEM of a representative experiment done in triplicate.

SW948CPTH cells = assay: cell cycle analysis; type: cell-based, human
SW948CPTL cells [6] = assay: cell cycle analysis; type: cell-based, human
SW948 = assay: cell proliferation assay, cross-resistance to topoisomerase I and II inhibitors; type: cell-based, human; details: Homo sapiens; SW948 parental; mean ± SD, 2-4 independent assays; read-out: Sensitivity expressed as IC50
Text: (§1) Drug resistance to other topoisomerase I and II inhibitors was examined by determining the IC50 dose of each drug using a cell proliferation assay as shown in Table 3.

SW948CPTH = assay: as above; type: cell-based, human
Text: as §1

SW948CPTL cells [7] = assay: clonogenic assay, CPT-11 IC50; type: cell-based; details: Homo sapiens, read-out: CPT-11 IC50
Procedure: 8. […] IC50 was determined using a clonogenic assay.

[8] = SW948 parent cell line, dose dependent

Which IC50 ([1]; read-out: CPT-11 IC50 Dose, SW948CPTH xenograft #16 (CPT-11 treated tumor), 134 days after implant) does the source give for `CCc1c2c(nc3ccc(OC(=O)N4CCC(N5CCCCC5)CC4)cc13)-c1cc3c(c(=O)n1C2)COC(=O)[C@]3(O)CC` [CPT-11, Irinotecan] here?
Its IC50 is 24.7 µg/mL (≈ 42.1 µM).

What about the IC50 ([1]; read-out: CPT-11 IC50 Dose, SW948CPTH xenograft #51 (untreated tumor), 121 days after implant) of the same compound?
Its IC50 is 18 µg/mL (≈ 30.7 µM).

What about the IC50 ([1]; read-out: CPT-11 IC50 Dose, SW948CPTH xenograft #53 (untreated tumor), 124 days after implant) of the same compound?
Its IC50 is 32.2 µg/mL (≈ 54.9 µM).

And the IC50 ([1]; read-out: CPT-11 IC50 Dose, SW948CPTH xenograft #54 (untreated tumor), 103 days after implant)?
The IC50 was 25.1 µg/mL (≈ 42.8 µM).

What about the IC50 (SW948 cells [2]; SW948, read-out: CPT-11 IC50 concentration (colony formation)) of the same compound?
Its IC50 is 2.8 µg/mL (≈ 4.77 µM).

What about the IC50 (SW948 cells [2]; read-out: CPT-11 IC50 of untreated SW948 cells, untreated SW948, mean value) of the same compound?
Its IC50 is 2.1 ± 0.3 µg/mL (≈ 3.58 µM).

What about the complete regressions [3] of the same compound?
The complete regressions was 0/7.

And the “G0-G1(%)” value (SW948 cells [4]; SW948, CPT-11 1 μg/ml)?
Its value is 36.0 ± 3.2%.

What about the “S(%)” value (SW948 cells [4]; SW948, CPT-11 1 μg/ml) of the same compound?
Its value is 39.6 ± 3.8%.

And the “G0-G1(%)” value (SW948 cells [4]; SW948, CPT-11 2 μg/ml)?
The value was 22.1 ± 2.0%.

And the “G2-M(%)” value (SW948 cells [4]; SW948, CPT-11 2 μg/ml)?
The value was 35.8 ± 5.1%.

And the “S(%)” value (SW948 cells [4]; SW948, CPT-11 2 μg/ml)?
The value was 42.1 ± 6.7%.

And the “G0-G1(%)” value (SW948 cells [4]; SW948, CPT-11 5 μg/ml)?
Its value is 17.0 ± 1.9%.

And the “G2-M(%)” value (SW948 cells [4]; SW948, CPT-11 5 μg/ml)?
The value was 41.0 ± 2.5%.

What about the “S(%)” value (SW948 cells [4]; SW948, CPT-11 5 μg/ml) of the same compound?
The value was 42 ± 2.5%.

And the “change of S phase” value (SW948 cells [4]; SW948 parent cell line)?
The value was “No obvious changes”.

What about the “change of percentage of cells in the G0-G1 phase” value (SW948 cells [4]; [8]) of the same compound?
Its value is “decreased”.

And the “change of percentage of cells in the G2-M phase” value (SW948 cells [4]; [8])?
The value was “increased”.

And the induction of apoptosis [5]?
The induction of apoptosis was “high level of apoptosis”.

What about the “G0-G1(%)” value (SW948CPTH cells; CPT-11 1 μg/ml) of the same compound?
The value was 45.7 ± 6.2%.

What about the “G2-M(%)” value (SW948CPTH cells; CPT-11 1 μg/ml) of the same compound?
Its value is 8.3 ± 3.1%.

What about the “S(%)” value (SW948CPTH cells; CPT-11 1 μg/ml) of the same compound?
The value was 46 ± 7.5%.

What about the “G0-G1(%)” value (SW948CPTH cells; CPT-11 2 μg/ml) of the same compound?
Its value is 44.6 ± 3.8%.

And the “G2-M(%)” value (SW948CPTH cells; CPT-11 2 μg/ml)?
The value was 8.9 ± 1.9%.

And the “S(%)” value (SW948CPTH cells; CPT-11 2 μg/ml)?
Its value is 46.5 ± 3.9%.

And the “G0-G1(%)” value (SW948CPTH cells; CPT-11 5 μg/ml)?
Its value is 45.0 ± 3.0%.

And the “G2-M(%)” value (SW948CPTH cells; CPT-11 5 μg/ml)?
Its value is 12.2 ± 2.3%.

And the “S(%)” value (SW948CPTH cells; CPT-11 5 μg/ml)?
Its value is 42.8 ± 4.9%.

And the “change of cell cycle” value (SW948CPTH cells; similar amount of CPT-11)?
The value was “did not cause any change”.

What about the “G0-G1(%)” value (SW948CPTL cells [6]; CPT-11 1 μg/ml) of the same compound?
The value was 50.0 ± 1.7%.

And the “G2-M(%)” value (SW948CPTL cells [6]; CPT-11 1 μg/ml)?
The value was 10.0 ± 1.4%.

What about the “S(%)” value (SW948CPTL cells [6]; CPT-11 1 μg/ml) of the same compound?
The value was 40.3 ± 2.4%.

And the “G2-M(%)” value (SW948CPTL cells [6]; CPT-11 2 μg/ml)?
Its value is 11.2 ± 2.6%.

What about the “S(%)” value (SW948CPTL cells [6]; CPT-11 2 μg/ml) of the same compound?
The value was 43.1 ± 6.5%.

What about the “G2-M(%)” value (SW948CPTL cells [6]; CPT-11 5 μg/ml) of the same compound?
Its value is 13.9 ± 2.2%.

What about the “S(%)” value (SW948CPTL cells [6]; CPT-11 5 μg/ml) of the same compound?
Its value is 40.8 ± 6.4%.

What about the “change of cell cycle” value (SW948CPTL cells [6]; similar amount of CPT-11) of the same compound?
The value was “did not cause any change”.

What about the IC50 (SW948) of the same compound?
The IC50 was 3 ± 0.4 µg/mL (≈ 5.11 µM).

And the IC50 (SW948CPTH; Homo sapiens, read-out: Sensitivity expressed as IC50)?
The IC50 was 43.7 ± 8.6 µg/mL (≈ 74.5 µM).

What about the “change in resistance of SW948CPTH cells compared to the parental cell line SW948” value (SW948CPTH; IC50 by cell proliferation assay (Table 3)) of the same compound?
Its value is “increased resistance”.

What about the IC50 (SW948CPTL cells [7]; 168 h) of the same compound?
Its IC50 is 4.8 µg/mL (≈ 8.18 µM).

What about the IC50 (SW948CPTL cells [7]; 600 h) of the same compound?
Its IC50 is 12.9 µg/mL (≈ 22 µM).

What about the IC50 (SW948CPTL cells [7]) of the same compound?
Its IC50 is 16 µg/mL (≈ 27.3 µM).
